± gives the expanded uncertainty stated by the source.
Test: xn = mol fraction of the nth substance listed
Conditions: Liquid; for viscosity: 2 kPa, Falling or rolling sphere viscometry; for speed of sound / mass density: 100 kPa; for speed of sound: Single path-length method; for mass density: Vibrating tube method

CNc1ccccc1 [N-methylaniline] + CCCC[n+]1ccn(C)c1.O=S(=O)([N-]S(=O)(=O)C(F)(F)F)C(F)(F)F
Conditions | mass density [kg/m3] | speed of sound [m/s] | viscosity [mPa·s]
298.15 K, x2 = 0 | 982.7 ± 1 | 1564.5 ± 0.7 | 1.94 ± 0.62
298.15 K, x2 = 0.0958 | 1085.92 ± 1 | 1478.4 ± 0.8 | 3.78 ± 1.1
298.15 K, x2 = 0.2004 | 1171.17 ± 1 | 1416.5 ± 0.8 | 7.41 ± 1.2
298.15 K, x2 = 0.3061 | 1237.44 ± 1 | 1372.1 ± 0.8 | 10.89 ± 2
298.15 K, x2 = 0.4074 | 1287.31 ± 1 | 1337.5 ± 0.9 | 15.38 ± 2.4
298.15 K, x2 = 0.4939 | 1321.9 ± 1.1 | 1312.1 ± 0.9 | 19.38 ± 2.7
298.15 K, x2 = 0.5905 | 1352.65 ± 1.1 | 1286.8 ± 0.9 | 23.54 ± 3.6
298.15 K, x2 = 0.6834 | 1377.01 ± 1.1 | 1267.9 ± 1 | 28.71 ± 4.2
298.15 K, x2 = 0.7988 | 1402.4 ± 1.1 | 1250.4 ± 1 | 35.25 ± 5.6
298.15 K, x2 = 0.8751 | 1415.81 ± 1.1 | 1241 ± 1.1 | 40.87 ± 6
303.15 K, x2 = 0 | 978.59 ± 1 | 1546.1 ± 0.7 | 1.73 ± 0.62
303.15 K, x2 = 0.0958 | 1081.63 ± 1 | 1462.9 ± 0.8 | 3.32 ± 0.83
303.15 K, x2 = 0.2004 | 1166.89 ± 1 | 1402.2 ± 0.8 | 6.34 ± 1.1
303.15 K, x2 = 0.3061 | 1233.05 ± 1 | 1358.7 ± 0.8 | 9.2 ± 1.5
303.15 K, x2 = 0.4074 | 1282.85 ± 1 | 1324.7 ± 0.9 | 12.87 ± 2.1
303.15 K, x2 = 0.4939 | 1317.38 ± 1.1 | 1299.7 ± 0.9 | 16.31 ± 2.5
303.15 K, x2 = 0.5905 | 1348.07 ± 1.1 | 1275.1 ± 0.9 | 19.68 ± 3
303.15 K, x2 = 0.6834 | 1372.38 ± 1.1 | 1256.5 ± 1 | 23.79 ± 3.7
303.15 K, x2 = 0.7988 | 1397.7 ± 1.1 | 1239.1 ± 1 | 29.03 ± 4.6
303.15 K, x2 = 0.8751 | 1411.09 ± 1.1 | 1229.8 ± 1.1 | 33.45 ± 5.4
308.15 K, x2 = 0 | 974.47 ± 1 | 1528.3 ± 0.7 | 1.55 ± 0.61
308.15 K, x2 = 0.0958 | 1077.34 ± 1 | 1447.9 ± 0.8 | 2.93 ± 0.77
308.15 K, x2 = 0.2004 | 1162.61 ± 1 | 1388 ± 0.8 | 5.47 ± 0.99
308.15 K, x2 = 0.3061 | 1228.67 ± 1 | 1345.4 ± 0.8 | 7.87 ± 1.2
308.15 K, x2 = 0.4074 | 1278.4 ± 1 | 1312.1 ± 0.9 | 10.91 ± 1.7
308.15 K, x2 = 0.4939 | 1312.87 ± 1.1 | 1287.6 ± 0.9 | 13.85 ± 2.1
308.15 K, x2 = 0.5905 | 1343.49 ± 1.1 | 1263.3 ± 0.9 | 16.65 ± 2.4
308.15 K, x2 = 0.6834 | 1367.74 ± 1.1 | 1245 ± 1 | 20 ± 2.9
308.15 K, x2 = 0.7988 | 1393.02 ± 1.1 | 1228.1 ± 1 | 24.27 ± 3.6
308.15 K, x2 = 0.8751 | 1406.37 ± 1.1 | 1218.9 ± 1.1 | 27.84 ± 4.2
313.15 K, x2 = 0 | 970.36 ± 1 | 1511.5 ± 0.7 | 1.4 ± 0.61
313.15 K, x2 = 0.0958 | 1073.05 ± 1 | 1433.7 ± 0.8 | 2.61 ± 0.73
313.15 K, x2 = 0.2004 | 1158.33 ± 1 | 1373.8 ± 0.8 | 4.76 ± 0.89
313.15 K, x2 = 0.3061 | 1224.28 ± 1 | 1332.5 ± 0.8 | 6.8 ± 1.1
313.15 K, x2 = 0.4074 | 1273.93 ± 1 | 1299.9 ± 0.9 | 9.36 ± 1.4
313.15 K, x2 = 0.4939 | 1308.35 ± 1.1 | 1275.7 ± 0.9 | 11.86 ± 1.7
313.15 K, x2 = 0.5905 | 1338.91 ± 1.1 | 1251.8 ± 0.9 | 14.24 ± 2
313.15 K, x2 = 0.6834 | 1363.11 ± 1.1 | 1233.8 ± 1 | 17.04 ± 2.4
313.15 K, x2 = 0.7988 | 1388.31 ± 1.1 | 1217.1 ± 1 | 20.57 ± 2.9
313.15 K, x2 = 0.8751 | 1401.64 ± 1.1 | 1208.1 ± 1.1 | 23.51 ± 3.3
318.15 K, x2 = 0 | 966.24 ± 1 | 1492.8 ± 0.7 | 1.27 ± 0.61
318.15 K, x2 = 0.0958 | 1068.75 ± 1 | 1417.6 ± 0.8 | 2.34 ± 0.7
318.15 K, x2 = 0.2004 | 1154.04 ± 1 | 1359.9 ± 0.8 | 4.17 ± 0.82
318.15 K, x2 = 0.3061 | 1219.9 ± 1 | 1319.4 ± 0.8 | 5.94 ± 0.95
318.15 K, x2 = 0.4074 | 1269.47 ± 1 | 1287.4 ± 0.9 | 8.12 ± 1.2
318.15 K, x2 = 0.4939 | 1303.83 ± 1.1 | 1263.6 ± 0.9 | 10.24 ± 1.5
318.15 K, x2 = 0.5905 | 1334.33 ± 1.1 | 1240 ± 0.9 | 12.3 ± 1.7
318.15 K, x2 = 0.6834 | 1358.47 ± 1.1 | 1222.4 ± 1 | 14.69 ± 1.9
318.15 K, x2 = 0.7988 | 1383.61 ± 1.1 | 1206.1 ± 1 | 17.64 ± 2.3
318.15 K, x2 = 0.8751 | 1396.92 ± 1.1 | 1197.1 ± 1.1 | 20.12 ± 2.6
323.15 K, x2 = 0 | 962.13 ± 1 | 1476.2 ± 0.7 | 1.16
323.15 K, x2 = 0.0958 | 1064.46 ± 1 | 1403.2 ± 0.8 | 2.11 ± 0.65
323.15 K, x2 = 0.2004 | 1149.76 ± 1 | 1346.5 ± 0.8 | 3.68 ± 0.78
323.15 K, x2 = 0.3061 | 1215.52 ± 1 | 1306.7 ± 0.8 | 5.23 ± 0.83
323.15 K, x2 = 0.4074 | 1265 ± 1 | 1275.5 ± 0.9 | 7.1 ± 1
323.15 K, x2 = 0.4939 | 1299.32 ± 1.1 | 1252 ± 0.9 | 8.9 ± 1.3
323.15 K, x2 = 0.5905 | 1329.74 ± 1.1 | 1228.6 ± 0.9 | 10.72 ± 1.5
323.15 K, x2 = 0.6834 | 1353.84 ± 1.1 | 1211.5 ± 1 | 12.79 ± 1.8
323.15 K, x2 = 0.7988 | 1378.91 ± 1.1 | 1195.2 ± 1 | 15.29 ± 2
323.15 K, x2 = 0.8751 | 1392.22 ± 1.1 | 1186.4 ± 1.1 | 17.41 ± 2.5
